“And” between values parts separate entries of the source, which are not always exact repeats. Equal entries are not always repeated. Inconclusive results and toxic doses are left out. How the source made its calls: active means survival T/C of 150% or more; inactive means T/C below 125% in these data. Peptide text beside a SMILES is read from it.
Test system: P388 leukemia ip, CD2F1 mice, survival T/C
Test: NCI In Vivo Anticancer Drug Screen. Data for tumor model P388 Leukemia (intraperitoneal) in CD2F1 (CDF1) mice
Conditions: endpoint: median survival time, higher = longer survival
Summary of the method: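 Mice carrying the transplanted tumor received test compound or vehicle. Survival was recorded in each group, and the value is the treated-group measurement divided by that of the vehicle-treated control group.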

[1] = dose: 25.0 mg/kg/injection, schedule: Q04DX003 (ip), vehicle: saline
[2] = dose: 50.0 mg/kg/injection, schedule: Q01DX009 (ip), vehicle: saline
[3] = dose: 100.0 mg/kg/injection, schedule: Q01DX009 (ip), vehicle: saline
[4] = dose: 200.0 mg/kg/injection, schedule: Q01DX009 (ip), vehicle: saline
[5] = dose: 50.0 mg/kg/injection, schedule: Q01DX009 (ip), vehicle: Klucel (hydroxypropylcellulose) (HPC)
[6] = dose: 100.0 mg/kg/injection, schedule: Q01DX009 (ip), vehicle: Klucel (hydroxypropylcellulose) (HPC)
[7] = dose: 50.0 mg/kg/injection, schedule: Q01DX005 (ip), vehicle: saline with Tween-80
[8] = dose: 100.0 mg/kg/injection, schedule: Q01DX005 (ip), vehicle: saline with Tween-80
[9] = dose: 200.0 mg/kg/injection, schedule: Q01DX005 (ip), vehicle: saline with Tween-80
[10] = dose: 25.0 mg/kg/injection, schedule: Q01DX009 (ip), vehicle: saline sonified
[11] = dose: 50.0 mg/kg/injection, schedule: Q01DX009 (ip), vehicle: saline sonified

Measured: T/C

O=C1C=CC(=O)O1 (tested in a mixture with another compound)
inactive: dose: 6.25 mg/kg/injection, schedule: Q01DX009 (ip), vehicle: saline 117 % of control | dose: 12.5 mg/kg/injection, schedule: Q01DX009 (ip), vehicle: saline 100 % of control | dose: 25.0 mg/kg/injection, schedule: Q01DX009 (ip), vehicle: saline 102 % of control and 108 % of control and 89 % of control | [1] 120 % of control | [2] 108 % of control [middle of 4 runs] | [3] 100 % of control and 108 % of control and 109 % of control | dose: 150.0 mg/kg/injection, schedule: Q01DX009 (ip), vehicle: saline 120 % of control | [4] 108 % of control and 115 % of control and 120 % of control

Cc1ccc(N=CN(C)Sc2ccc(C(C)(C)C)cc2)c(C)c1
inactive: [5] 103 % of control | [6] 117 % of control

CCN(CC)CCCC(C)Nc1ncnc2cc(Cl)ccc12 (centres undefined)
inactive: [7] 97 % of control | [8] 94 % of control | [9] 94 % of control

COC(=O)C(CSCSCc1ccccc1)NC(=O)C(CSCc1ccccc1)NC(=O)CCNC(=O)OCc1ccccc1 (centres undefined)
inactive: dose: 3.12 mg/kg/injection, schedule: Q04DX003 (ip), vehicle: saline 114 % of control | dose: 6.25 mg/kg/injection, schedule: Q04DX003 (ip), vehicle: saline 100 % of control | dose: 12.5 mg/kg/injection, schedule: Q04DX003 (ip), vehicle: saline 98 % of control | [1] 112 % of control

Clc1c(Cl)c(C[P+](CCP(c2ccccc2)c2ccccc2)(c2ccccc2)c2ccccc2)c(Cl)c(Cl)c1C[P+](CCP(c1ccccc1)c1ccccc1)(c1ccccc1)c1ccccc1
inactive: dose: 12.5 mg/kg/injection, schedule: Q01DX009 (ip), vehicle: saline with Tween-80 120 % of control

CCCN=C(c1ccccc1C=O)c1c2ccccc2cn1CCC
inactive: dose: 7.5 mg/kg/injection, schedule: Q01DX005 (ip), vehicle: saline + Tween-80 + alcohol 114 % of control | dose: 15.0 mg/kg/injection, schedule: Q01DX005 (ip), vehicle: saline + Tween-80 + alcohol 124 % of control | dose: 30.0 mg/kg/injection, schedule: Q01DX005 (ip), vehicle: saline + Tween-80 + alcohol 119 % of control

OC(Cc1cnc2ccccc2n1)(C(F)(F)F)C(F)(F)F
inactive: dose: 100.0 mg/kg/injection, schedule: Q04DX003 (ip), vehicle: saline with Tween-80 109 % of control | dose: 200.0 mg/kg/injection, schedule: Q04DX003 (ip), vehicle: saline with Tween-80 95 % of control | dose: 400.0 mg/kg/injection, schedule: Q04DX003 (ip), vehicle: saline with Tween-80 90 % of control

CCc1ccc2nc3ccccc3c(NCCCCCCNc3c4ccccc4nc4ccc(CC)cc34)c2c1
inactive: dose: 0.62 mg/kg/injection, schedule: Q01DX009 (ip), vehicle: other 100 % of control | dose: 1.25 mg/kg/injection, schedule: Q01DX009 (ip), vehicle: other 114 % of control | dose: 2.5 mg/kg/injection, schedule: Q01DX009 (ip), vehicle: other 105 % of control | dose: 5.0 mg/kg/injection, schedule: Q01DX009 (ip), vehicle: other 116 % of control | dose: 10.0 mg/kg/injection, schedule: Q01DX009 (ip), vehicle: other 124 % of control

CC(=O)Nc1ccc(C(=O)O)c(O)c1.CC(=O)Nc1ccc(C(=O)O)c(O)c1.[Cu]
inactive: dose: 6.25 mg/kg/injection, schedule: Q01DX001 (ip), vehicle: saline 98 % of control | dose: 12.5 mg/kg/injection, schedule: Q01DX001 (ip), vehicle: saline 97 % of control | dose: 25.0 mg/kg/injection, schedule: Q01DX001 (ip), vehicle: saline 94 % of control

O=C1C2C(C(=O)N1c1ccc(OCc3ccccc3)cc1)C1c3ccccc3C2C2CCCCN21 (centres undefined)
inactive: dose: 3.13 mg/kg/injection, schedule: Q01DX009 (ip), vehicle: water 100 % of control | dose: 6.25 mg/kg/injection, schedule: Q01DX009 (ip), vehicle: water 105 % of control | dose: 12.5 mg/kg/injection, schedule: Q01DX009 (ip), vehicle: water 109 % of control | dose: 25.0 mg/kg/injection, schedule: Q01DX009 (ip), vehicle: water 111 % of control

OCCN=Cc1ccccc1
inactive: [10] 90 % of control | [11] 104 % of control | dose: 100.0 mg/kg/injection, schedule: Q01DX009 (ip), vehicle: saline sonified 104 % of control

CCOc1ccc(NC(=O)c2c(N)n(C)c(=O)n(C)c2=O)cc1
inactive: [5] 88 % of control | [6] 93 % of control

C=C/C(=C/CC(=O)O[C@@H]1CCC(C)(C)C(C=O)=C1C)Sc1ccccc1
inactive: dose: 50.0 mg/kg/injection, schedule: Q01DX001 (ip), vehicle: DMSO 92 % of control | dose: 100.0 mg/kg/injection, schedule: Q01DX001 (ip), vehicle: DMSO 92 % of control | dose: 200.0 mg/kg/injection, schedule: Q01DX001 (ip), vehicle: DMSO 92 % of control

CCNC(=O)Oc1ccc[nH]c1=O
inactive: dose: 25.0 mg/kg/injection, schedule: Q01DX009 (sc), vehicle: water 100 % of control and 103 % of control | [2] 111 % of control and 114 % of control | dose: 50.0 mg/kg/injection, schedule: Q01DX009 (sc), vehicle: water 104 % of control and 109 % of control | [3] 122 % of control | dose: 100.0 mg/kg/injection, schedule: Q01DX009 (sc), vehicle: water 106 % of control and 109 % of control | [4] 118 % of control | dose: 200.0 mg/kg/injection, schedule: Q01DX009 (sc), vehicle: water 108 % of control and 118 % of control | dose: 400.0 mg/kg/injection, schedule: Q01DX009 (ip), vehicle: saline 119 % of control | dose: 400.0 mg/kg/injection, schedule: Q01DX009 (sc), vehicle: water 113 % of control

NC(N)=Nc1nc2ccccc2s1
inactive: dose: 12.5 mg/kg/injection, schedule: Q01DX009 (ip), vehicle: saline sonified 100 % of control | [10] 100 % of control | [11] 100 % of control

CC1(CCBr)C(=O)NC(=O)NC1=O
inactive: [7] 101 % of control | [8] 101 % of control | [9] 105 % of control

Nc1ccc(-c2c3ccccc3nc3cc(N)ccc23)cc1
inactive: dose: 50.0 mg/kg/injection, schedule: Q01DX005 (ip), vehicle: saline 118 % of control | dose: 100.0 mg/kg/injection, schedule: Q01DX005 (ip), vehicle: saline 115 % of control

Cc1cc(O)c(NCCCN(C)C)c2c(=O)c3ccccc3sc12
inactive: dose: 25.0 mg/kg/injection, schedule: Q01DX009 (ip), vehicle: saline with Tween-80 97 % of control | dose: 50.0 mg/kg/injection, schedule: Q01DX009 (ip), vehicle: saline with Tween-80 93 % of control | dose: 100.0 mg/kg/injection, schedule: Q01DX009 (ip), vehicle: saline with Tween-80 110 % of control

Cc1noc(NC(=O)Nc2ccccc2F)c1C#N
inactive: [7] 91 % of control | [8] 100 % of control

NC(=O)C1CCCN1C(=O)C1CCCN(Cc2ccc(CN3CCCC(C(=O)N4CCCC4C(N)=O)C3)cc2)C1 (centres undefined)
inactive: dose: 60.0 mg/kg/injection, schedule: Q01DX005 (ip), vehicle: saline 106 % of control | dose: 120.0 mg/kg/injection, schedule: Q01DX005 (ip), vehicle: saline 97 % of control

CCNc1nn2ccccc2c1/C=C(/C#N)C(=O)OCC
inactive: dose: 25.0 mg/kg/injection, schedule: Q01DX001 (ip), vehicle: saline with Tween-80 94 % of control | dose: 50.0 mg/kg/injection, schedule: Q01DX001 (ip), vehicle: saline with Tween-80 91 % of control | dose: 100.0 mg/kg/injection, schedule: Q01DX001 (ip), vehicle: saline with Tween-80 91 % of control | dose: 200.0 mg/kg/injection, schedule: Q01DX001 (ip), vehicle: saline with Tween-80 91 % of control

NC(Cc1ccccc1)C(=O)NC(CCC(=O)O)C(=O)NC(CCC(=O)O)C(=O)O (stereo not drawn) (H-Phe-Glu-Glu-OH; configuration not given here)
inactive: dose: 50.0 mg/kg/injection, schedule: Q01DX005 (ip), vehicle: Klucel (hydroxypropylcellulose) (HPC) 103 % of control | dose: 100.0 mg/kg/injection, schedule: Q01DX005 (ip), vehicle: Klucel (hydroxypropylcellulose) (HPC) 100 % of control | dose: 200.0 mg/kg/injection, schedule: Q01DX005 (ip), vehicle: Klucel (hydroxypropylcellulose) (HPC) 96 % of control

Oc1ccccc1C=NCCN1CC1.Oc1ccccc1C=NCCN1CC1.[Co+2]
inactive: dose: 4.7 mg/kg/injection, schedule: Q01DX009 (ip), vehicle: saline 103 % of control | dose: 9.4 mg/kg/injection, schedule: Q01DX009 (ip), vehicle: saline 102 % of control | dose: 18.8 mg/kg/injection, schedule: Q01DX009 (ip), vehicle: saline 100 % of control | dose: 37.5 mg/kg/injection, schedule: Q01DX009 (ip), vehicle: saline 100 % of control and 97 % of control

Source: PubChem BioAssay AID330 (DTP/NCI, 2004)
